Among the data in US20240400553A1, “AMINE BASED MATRIPTASE 2 INHIBITORS AND USES THEREOF” (Disc Medicine, Inc., priority 2023, published 2024) are Ki values, retold here.

A value given as a limit tells only on which side of the number the result lay.

For one test, the target named is T1, Human Recombinant Matriptase 2 (Homo sapiens, UniProt Q8IU80).
T1 construct: made in house
T1 sequence (Q8IU80 1-811): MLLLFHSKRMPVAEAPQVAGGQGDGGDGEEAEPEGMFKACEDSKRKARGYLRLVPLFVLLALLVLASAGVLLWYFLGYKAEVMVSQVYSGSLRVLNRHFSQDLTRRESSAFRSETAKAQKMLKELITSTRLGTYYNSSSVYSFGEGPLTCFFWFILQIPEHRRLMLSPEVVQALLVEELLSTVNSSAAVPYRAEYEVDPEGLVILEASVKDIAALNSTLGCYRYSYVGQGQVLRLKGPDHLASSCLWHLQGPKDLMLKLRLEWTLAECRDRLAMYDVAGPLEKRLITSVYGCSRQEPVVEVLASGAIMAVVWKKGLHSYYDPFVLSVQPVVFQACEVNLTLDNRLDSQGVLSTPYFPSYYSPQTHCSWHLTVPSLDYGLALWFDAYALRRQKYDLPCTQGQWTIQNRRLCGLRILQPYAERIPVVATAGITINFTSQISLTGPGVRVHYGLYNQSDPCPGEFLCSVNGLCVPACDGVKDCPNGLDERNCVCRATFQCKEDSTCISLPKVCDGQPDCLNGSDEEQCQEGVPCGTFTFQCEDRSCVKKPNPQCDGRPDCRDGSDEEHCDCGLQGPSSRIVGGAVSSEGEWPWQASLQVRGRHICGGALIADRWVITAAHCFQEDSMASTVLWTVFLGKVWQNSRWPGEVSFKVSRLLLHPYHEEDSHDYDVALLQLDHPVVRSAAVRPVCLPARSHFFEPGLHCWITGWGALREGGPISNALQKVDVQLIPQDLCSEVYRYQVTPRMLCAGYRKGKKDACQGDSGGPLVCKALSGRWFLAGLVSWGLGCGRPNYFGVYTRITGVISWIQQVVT
As to the kind of experiment: Matriptase 2 inhibition, fluorescence based assay (Method I). The settings on record: Table A; Ki of Matriptase-2, class symbols; read-out: Mat-2 Ki. The format is biochemical. A digest of the protocol:
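In-house recombinant enzyme (3.5 nM), preincubated 30 min with compound, then Boc-Gln-Ala-Arg-AMC substrate (62 μM) in 50 mM Tris pH 7.5, 150 mM NaCl, 0.01% gelatin, 1% DMSO, 25 °C. Fluorescence (Ex 360/Em 480 nm) read 60 min after substrate; IC50 from variable-slope sigmoidal fit of % inhibition.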
By Ki is commonly meant a dissociation constant, usually derived from enzyme kinetics or from competition with a known ligand. Take `NCc1ccc2cc(-c3nnn[nH]3)n(Cc3cc(NS(=O)(=O)CC[C@@H]4CCCN4)cc4ccccc34)c2c1` [Compound 399, (S)—N-(4-((6-(aminomethyl)-2-(1H-tetrazol-5-yl)-1H-indol-1-yl)methyl)naphthalen-2-yl)-2-(pyrrolidin-2-yl) ethane-1-sulfonamide]: the inhibition constant Ki lay in the range of 100 to 500 nM.

Still in this test, the particulars now being: Table A; Ki of Matriptase-2; read-out: Mat-2 Ki.
Consider `Cc1cccc(C)c1CS(=O)(=O)Nc1cc(Cn2c(C(=O)OC[C@H]3CNCCO3)cc3ccc(CN)nc32)c2ccccc2c1` [Compound 182, [(2R)-morpholin-2-yl]-methyl 6-(aminometh-yl)-1-({3-[(2,6-dimeth-ylphenyl)methanesulfon-amido]naphthalen-1-yl}-methyl)-1H-pyrrolo[2,3-b]pyridine-2-carboxylate], for which the Ki was no more than 100 nM.

In the case of `CC(C)C(=O)O[C@H](C)OC(=O)c1cc2ccc(CN)nc2n1Cc1cc(NS(=O)(=O)Cc2ccccc2)cc2ccccc12` (racemic) [Compound 118, 1-[6-(aminomethyl)-1-{[3-(phenylmethanesul-fonamido)naphthalen-1-yl]methyl}-1H-pyrrolo-[2,3-b]pyridine-2-car-bonyloxylethyl 2-meth-ylpropanoate], the Ki was in the range of 500 to 3000 nM.

Turning to `CN1CCC(COC(=O)c2cc3ccc(CN)nc3n2Cc2cc(NS(=O)(=O)Cc3ccccc3)cc3ccccc23)CC1` [Compound 17, (1-methylpiperidin-4-yl)methyl 6-(amino-methyl)-1-{[3-(phenyl-methanesulfonamido)-naphthalen-1-yl]methyl}-1H-pyrrolo[2,3-b]pyr-idine-2-carboxylate], the Ki was no more than 100 nM.

For `NCc1ccc2cc(C(=O)NCCN3CCOCC3)n(Cc3cc(NS(=O)(=O)Cc4ccccc4)cc4ccccc34)c2n1` [Compound 60, 6-(aminomethyl)-N-[2-(morpholin-4-yl)ethyl]-1-{[3-(phenylmethane-sulfonamido)naphthalen-1-yl]methyl}-1H-pyr-rolo[2,3-b]pyridine-2-carboxamide], the inhibition constant (Ki) is no more than 100 nM.

For `CC(C)n1ccc(COC(=O)c2cc3ccc(CN)nc3n2Cc2cc(NS(=O)(=O)Cc3ccccc3)cc3ccccc23)n1` [Compound 90, [1-(propan-2-yl)-1H-pyrazol-3-yl]methyl 6-(aminomethyl)-1-{[3-(phenylmethanesulfon-amido)naphthalen-1-yl]-methyl}-1H-pyrrolo[2,3-b]pyridine-2-carboxylate], the Ki is 100 to 500 nM.

As for `CC(C)n1cnc(COC(=O)c2cc3ccc(CN)nc3n2Cc2cc(NS(=O)(=O)Cc3ccccc3)cc3ccccc23)c1` [Compound 87, [1-(propan-2-yl)-1H-imidazol-4-yl]methyl 6-(aminomethyl)-1-{[3-(phenylmethanesulfon-amido)naphthalen-1-yl]-methyl}-1H-pyrrolo[2,3-b]pyridine-2-carboxylate], the inhibition constant (Ki) is 100 to 500 nM.

As for `CC(C)COC(=O)c1cc2ccc(CN)nc2n1Cc1cc(NS(=O)(=O)Cc2ccccc2)cc2ccccc12` [Compound 121, 2-methylpropyl 6-(aminomethyl)-1-{[3-(phenylmethanesulfon-amido)naphthalen-1-yl]-methyl}-1H-pyrrolo[2,3-b]pyridine-2-carboxylate], the Ki fell in the range of 500 to 3000 nM.

Consider `NCc1ccc2cc(C(=O)OCCN3CCOCC3)n(Cc3cc(NS(=O)(=O)Cc4ccccc4)cc4ccccc34)c2n1` [Compound 50, 2-(morpholin-4-yl)ethyl 6-(aminomethyl)-1-{[3-(phenylmethanesulfon-amido)naphthalen-1-yl]-methyl}-1H-pyrrolo[2,3-b]pyridine-2-carboxylate], for which the Ki is no more than 100 nM.

Consider `NCc1ccc2cc(C(=O)O)n(Cc3cc(NS(=O)(=O)Cc4cccs4)cc4ccccc34)c2n1` [Compound 153, 6-(aminomethyl)-1-({3-[(thiophen-2-yl)methane-sulfonamido]naphthalen-1-yl}methyl)-1H-pyr-rolo[2,3-b]pyridine-2-carboxylic acid], for which the Ki was no more than 100 nM.

Take `NCc1ccc2cc(C(=O)OCC3CCOCC3)n(Cc3cc(NS(=O)(=O)Cc4ccsc4)cc4ccccc34)c2n1` [Compound 176, (oxan-4-yl)methyl 6-(aminomethyl)-1-({3-[(thiophen-3-yl)methane-sulfonamido]naphthalen-1-yl}methyl)-1H-pyr-rolo[2,3-b]pyridine-2-carboxylate]: the inhibitory constant (Ki) was no more than 100 nM.

The test is the same for the next values; noted with them: Table A; Ki of Matriptase-2 given as class symbols; read-out: Mat-2 Ki.
On to `NCc1ccc2cc(-c3noc(=O)[nH]3)n(Cc3cc(NS(=O)(=O)Cc4ccccc4)cc4ccccc34)c2n1` [Compound 353, N-(4-((6-(aminomethyl)-2-(5-hydroxy-1,2,4-oxadiazol-3-yl)-1H-pyrrolo[2,3-b]pyridin-1-yl)methyl)naphthalen-2-yl)-1-phenylmethanesulfonamide], for which the Ki is 100 to 500 nM.

For the molecule `CN1CCC(c2nnc(-c3cc4ccc(CN)nc4n3Cc3cc(NS(=O)(=O)Cc4ccccc4)cc4ccccc34)o2)CC1` [Compound 345, N-(4-((6-(aminomethyl)-2-(5-(1-methylpiperidin-4-yl)-1,3,4-oxadiazol-2-yl)-1H-pyrrolo[2,3-b]pyridin-1-yl)methyl)naphthalen-2-yl)-1-phenylmethanesulfonamide], the inhibition constant Ki was no more than 100 nM.

`CN1CCC[C@@H]1COC(=O)Nc1cc(Cn2c(C(=O)O)cc3ccc(CN)nc32)c2ccccc2c1` (racemic) [Compound 335, 6-(aminomethyl)-1-{[3-({[(1-methylpyrrolidin-2-yl)methoxy]carbon-yl}amino)naphthalen-1-yl]methyl}-1H-pyrrolo-[2,3-b]pyridine-2-car-boxylic acid]: the Ki lay in the range of 100 to 500 nM.

For the molecule `NCc1ccc2cc(C(=O)O)n(Cc3cc(NS(=O)(=O)CC[C@H]4CCCN4)cc4ccccc34)c2n1` [Compound 217, 6-(aminomethyl)-1-[(3-{2-[(2R)-pyrrolidin-2-yl]ethanesulfonamido}-naphthalen-1-yl)methyl]-1H-pyrrolo[2,3-b]pyr-idine-2-carboxylic acid], the Ki was in the range of 100 to 500 nM.

Take `NCc1ccc2cc(-c3ccn[nH]3)n(Cc3cc(NS(=O)(=O)Cc4ccccc4)cc4ccccc34)c2n1` [Compound 351]: the Ki is no more than 100 nM.

`NCc1ccc2cc(C(=O)O)n(Cc3cc(NS(=O)(=O)N4CCC(C(F)(F)F)CC4)cc4ccccc34)c2c1` [Compound 393, 6-(aminomethyl)-1-{[3-({[4-(trifluoromethyl)-piperidin-1-yl]sulfonyl}-amino)naphthalen-1-yl]-methyl}-1H-indole-2-carboxylic acid]: the inhibitory constant (Ki) fell in the range of 500 to 3000 nM.

In the case of `CNC(=O)c1cc2ccc(CN)nc2n1Cc1cc(NS(=O)(=O)CC2CCNCC2)cc2ccccc12` [Compound 215, 6-(aminomethyl)-N-methyl-1-({3-[(piperi-din-4-yl)methanesulfon-amido]naphthalen-1-yl}-methyl)-1H-pyrrolo[2,3-b]pyridine-2-carboxamide], the Ki was 100 to 500 nM.

With `CN1CCO[C@@H](COC(=O)Nc2cc(Cn3c(C(=O)O)cc4ccc(CN)nc43)c3ccccc3c2)C1` (racemic) [Compound 337, 6-(aminomethyl)-1-{[3-({[(4-methylmorpholin-2-yl)methoxy]carbon-yl}amino)naphthalen-1-yl]methyl}-1H-pyrrolo-[2,3-b]pyridine-2-car-boxylic acid], the Ki was 100 to 500 nM.

In the case of `COC(=O)NCCNC(=O)c1cc2ccc(CN)nc2n1Cc1cc(NS(=O)(=O)CC[C@@H]2CCCN2)cc2ccccc12` [Compound 258, methyl N-(2-{[6-(amino-methyl)-1-[(3-{2-[(2S)-pyrrolidin-2-yl]ethane-sulfonamido}naphthalen-1-yl)methyl]-1H-pyr-rolo[2,3-b]pyridin-2-yl]-formamido}ethyl)car-bamate], the inhibitory constant (Ki) lay within 100 to 500 nM.

`CNCCOC(=O)c1cc2ccc(CN)nc2n1Cc1cc(NS(=O)(=O)Cc2c(C)cccc2C)cc2ccccc12` [Compound 200, 2-(methylamino)ethyl 6-(aminomethyl)-1-({3-[(2,6-dimethylphenyl)-methanesulfonamido]-naphthalen-1-yl}meth-yl)-1H-pyrrolo[2,3-b]-pyridine-2-carboxylate]: the Ki was in the range of 100 to 500 nM.

With `NCc1ccc2cc(C(=O)O)n(Cc3cc(NS(=O)(=O)Cc4ccccc4F)cc4ccccc34)c2n1` [Compound 227, 6-(aminomethyl)-1-({3-[(2-fluorophenyl)meth-anesulfonamido]naph-thalen-1-yl}methyl)-1H-pyrrolo[2,3-b]pyridine-2-carboxylic acid], the Ki is 100 to 500 nM.

Staying with this test, now noted: Table B; Human Recombinant Matriptase 2, 3.5 nM enzyme, 62 μM substrate, 30 mins preincubation; read-out: Mean Ki.
As for `Cn1ccnc1CCOC(=O)c1cc2ccc(CN)nc2n1Cc1cc(NS(=O)(=O)Cc2ccsc2)cc2ccccc12` [Compound 2.29], the inhibition constant Ki is no more than 100 nM.

For `NCc1ccc2cc(C(=O)Nc3ccc(N)cc3)n(Cc3cc(NS(=O)(=O)Cc4ccccc4)cc4ccccc34)c2n1` [Compound 2.35], the inhibition constant (Ki) is 100 to 500 nM.
